# Experimental data reported in patent publication US11439615B2, “Lipoxin and lipoxin analogue mediated neuroprotection and treatments” (University Health Network, priority 2017, dated 2022).
# Legend:
# [1] = system: retinal ganglion cell neurons (RGCs); assay: Mouse acute retinal insult model (intravitreal kainic acid), RGC survival / GCL apoptosis; assay type: in vivo; conditions: 2 μl of 10 μM intravitreally one hour prior to retinal KA insult; RBPMS counts
# Method: Male C57BLL/6 mice, 4-6 weeks of age, were purchased from Taconic or Jackson labs. All experimental protocols were approved by the UHN and UC Berkeley ACUC in accordance with applicable regulations. Mice were anesthetized by intraperitoneal injection of ketamine/xylazine. Intravitreal injections with 10 mM kainic acid (KA) were performed as previously described (45). Briefly, a 30-gauge needle was inserted tangentially into the vitreous and replaced with a Hamilton syringe to inject a volume of 2 μL, followed by application of ophthalmic antibiotic ointment (BNP, Vetoquinol). In some experiments, 10× concentrated ACM or test compounds were injected intravitreally one hour prior to the KA injection in concentrations as follows: LXA4 and LXB4 at 10 μM, Zileuton at 2 μg/ul, and WRW4 at 15 μM, all dissolved in PBS. Mice were euthanized by CO2 asphyxiation 18 hours post KA treatment and the eyes fixed in 4% paraformaldehyde. In all experiments n refers to the number of animals tested.
# To quantify the extent of apoptosis, a well-established method was used to count the number of TUNEL-positive nuclei in the ganglion cell layer (GCL) and expressed it as a fraction of the total GCL nuclei (50-54). TUNEL labeling was performed according to the manufacturer's instructions (DeadEnd; Promega). Briefly, cryostat sections were fixed with 4% PFA for 5 minutes and washed in PBS. Equilibration buffer was added, and rTdT reaction mix was applied to each slide and incubated at 37° C. for 60 min. Following the rTdT reaction, slides were washed in 2×SSC and PBS and finally mounted with glycerol-based medium. For RGC survival, RBPMS-positive cells in the GCL were counted and expressed as a fraction of GCL nuclei. For each eye, at least five central retinal sections were analyzed at the level of the optic nerve stretching to each ora serrata, and the results averaged, as previously described (42).
# In order to test the influence of the transplanted cells on inner retinal pathology, RA's were transplanted as above. After 16 days retinas were challenged with an acute metabolic injury by injection of kainic acid (KA). […]
# Retinal astrocyte neuroprotection is mediated through secreted factors that include a small molecule component enriched in LXA4 and LXB4. […] This time, survival of RGCs was specifically assessed by probing for the selective marker RBPMS, along with complementary TUNEL staining, and quantified as previously. As expected, extensive RGC loss was detected in KA challenged eyes injected with cell-free control media incubated under the same conditions as ACM (FIG. 2A). […]
# HT22 cells = assay: Mitosox mitochondrial oxidative stress in glutamate challenged HT22 cells; assay type: cell-based; conditions: 1 μM, HT22 cells challenged with glutamate, vs vehicle
# Method: HT22 cells challenged with glutamate were then assayed for mitochondrial oxidative stress using the Mitosox reagent, in combination with 1 μM LXA4, LXB4, and the LXA4 receptor ALX/FPR2 agonists Quinc-1 and Mmk-1.
# [2] = system: dopaminergic SH-SY5Y cells; assay: Mitochondrial oxidative stress in SH-SY5Y cells challenged with paraquat; assay type: cell-based; conditions: paraquat (PQ) induced oxidative stress, vs vehicle
# primary RGCs [3] = assay: Primary RGCs under serum deprivation, cell and neurite survival (β3-tubulin); assay type: cell-based, rat; conditions: 1 μM, 48 hours of serum and supplement deprivation
# Method: (§1) For astrocytes: Primary mature retinal astrocytes (RA) were isolated and cultured as previously described (46). Briefly, eyes were dissected out of adult Wistar rats and placed in ice-cold MEM-H17 media. Isolated retinas were digested by shaking in MEM-H17 containing papain and DNAse, followed by trituration to disperse cell-aggregates. When cultures reached confluence, the cells were placed on a rotating shaker for 6-8 hours to remove microglia and then re-plated. A glial-specific expression profile was confirmed by probing the cultures with a panel of glia microglia and neuronal markers (44). For RGCs: RGCs were purified using magnetic MicroBeads (Miltenyi Biotec, Germany) according to the manufacturer's protocol. Briefly; retinal cell suspensions were prepared from 8-10 day old rats and incubated with CD90.1 microbeads, and then carefully washed with DPBS/BSA buffer. The suspension was centrifuged at 130×g and the supernatant aspirated. Cells were then incubated with biotinylated depletion antibodies against microglia and endothelial cells. The labeled cell suspension was then incubated with magnetic Anti-Biotin MACSiBead™ Particles, and placed in a weak magnetic field. The pre-enriched cell suspension was centrifuged, and resuspended in fresh DPBS/BSA buffer and applied to a MACs MS separation column in the presence of a strong magnetic field to select for CD90.1-bound RGCs. To increase RGC purity, the eluted fraction was enriched over a second column. Purified RGCs were eluted and plated on poly-D-lysine coated dishes. The cells were cultured in Neurobasal-A media (Gibco) supplemented with 2% calf serum, B27, L-glutamine, BDNF, CNTF, forskolin and pen/strep.
# To further confirm direct lipoxin activity in primary neurons, the ability of LXA4 or LXB4 to protect primary RGCs was tested. RGCs were isolated by immunopanning according to established methods. The cells were subjected to serum deprivation (SD), and then stained for β3-tubulin to quantify cell and neurite survival. Under normal serum, the RGCs extended an extensive network of neurites. […]
# primary RGCs [4] = assay: Primary RGCs under paraquat oxidative stress, cell and neurite survival; assay type: cell-based, rat; conditions: 1 μM, 24 hours of 30 μM PQ
# Method: FIG. 5D is a graph showing Mitotracker red signal which indicates protection from […] membrane potential with LXB4 treatment (n=3). FIG. 5E is a series of images showing primary RGCs labeled with β3-tubulin extend an extensive network of neurites that disintegrate dramatically after 24 hours of 30 μM PQ. […] (Scale bar indicates 20 μm, *p<0.05, **p<0.01, bars are S.E.M.).
# as §1
# primary cortical neurons = assay: Primary cortical neurons under paraquat oxidative stress, neuron number; assay type: cell-based; conditions: n=5
# Source text: Quantification of neuron number following oxidative stress from the redox cycling compound paraquat in primary cortical neurons.
SMILES,increase of RGC survival compared to vehicle control [1],mitochondrial oxidative stress (Mitosox) (HT22 cells),mitochondrial oxidative stress / mitochondria stabilisation [2],neurite degeneration following serum deprivation (intact neurite ratio) (primary RGCs [3]),neuron survival following serum deprivation (primary RGCs [3]),RGC neurite degeneration following PQ challenge (primary RGCs [4]),RGC survival following oxidative stress (primary RGCs [4]),neuron number following oxidative stress from paraquat (primary cortical neurons)
"CCCCC[C@H](O)[C@H](O)/C=C/C=C/C=C\C=C\[C@@H](O)CCCC(=O)O [LXB4, 5S,14R,15S-trihydroxy-6E,8Z,10E,12E-eicosatetraenoic acid]",50%,reduce mitochondrial oxidative stress,stabilize mitochondria,strongly rescued,significant rescue,significantly rescued,significant rescue,have activities
"CCCCC[C@H](O)/C=C/C=C\C=C\C=C\[C@@H](O)[C@@H](O)CCCC(=O)O [LXA4, 5S,6R,15S-trihydroxy-7E,9E,11Z,13E-eicosatetraenoic acid]",37%,reduce mitochondrial oxidative stress,stabilize mitochondria,,significant rescue,,significant rescue,have activities
